# Experimental data reported in ChEMBL document CHEMBL4765295, “Synthesis, pharmacological profile and 2D-QSAR studies of curcumin-amino acid conjugates as potential drug candidates” (Eur J Med Chem, 2020).
# Several values for one entry are separate records, joined by “and”; a condition that tells them apart may be missing. Identical values can stand only once.
# Key:
# Rattus norvegicus [1] = assay: Antiinflammatory activity in Wistar rat model of carrageenan-induced paw edema assessed as reduction in thickness of paw edema at 10 mg/kg, ip pretreated for 1 hr followed by carrageenan challenge and measured after 1 hr (reference value: 2.41 +/-0.05 mm); format: functional; conditions: time 1 hr after carrageenan
# Rattus norvegicus [2] = assay: Anti-inflammatory activity in Wistar rat assessed as inhibition of carrageenan-induced paw edema at 10 mg/kg, ip pretreated for 1 hr followed by carrageenan challenge and measured after 1 hr relative to control (reference value: 0.00 +/-0.02 %); format: functional; conditions: time 2 hrs
# Rattus norvegicus [3] = assay: Antiinflammatory activity in Wistar rat model of carrageenan-induced paw edema assessed as reduction in thickness of paw edema at 10 mg/kg, ip pretreated for 1 hr followed by carrageenan challenge and measured after 2 hrs (reference value: 2.06 +/-0.09 mm); format: functional; conditions: time 3 hrs
# Rattus norvegicus [4] = assay: Anti-inflammatory activity in Wistar rat assessed as inhibition of carrageenan-induced paw edema at 10 mg/kg, ip pretreated for 1 hr followed by carrageenan challenge and measured after 2 hr relative to control (reference value: 0.00 +/-0.03 %); format: functional; conditions: time 3 hrs
# Rattus norvegicus [5] = assay: Antiinflammatory activity in Wistar rat model of carrageenan-induced paw edema assessed as reduction in thickness of paw edema at 10 mg/kg, ip pretreated for 1 hr followed by carrageenan challenge and measured after 3 hrs (reference value: 1.79 +/-0.07 mm); format: functional; conditions: time 4 hrs
# Rattus norvegicus [6] = assay: Anti-inflammatory activity in Wistar rat assessed as inhibition of carrageenan-induced paw edema at 10 mg/kg, ip pretreated for 1 hr followed by carrageenan challenge and measured after 3 hr relative to control (reference value: 0.00 +/-0.1 %); format: functional; conditions: time 4 hrs
# Rattus norvegicus [7] = assay: Antiinflammatory activity in Wistar rat model of carrageenan-induced paw edema assessed as reduction in thickness of paw edema at 10 mg/kg, ip pretreated for 1 hr followed by carrageenan challenge and measured after 4 hrs (reference value: 1.40 +/-0.10 mm); format: functional; conditions: time 5 hrs
# Rattus norvegicus [8] = assay: Anti-inflammatory activity in Wistar rat assessed as inhibition of carrageenan-induced paw edema at 10 mg/kg, ip pretreated for 1 hr followed by carrageenan challenge and measured after 4 hr relative to control (reference value: 0.00 +/-0.4 %); format: functional; conditions: time 5 hrs
# Rattus norvegicus [9] = assay: Antiinflammatory activity in Wistar rat model of carrageenan-induced paw edema assessed as reduction in thickness of paw edema at 10 mg/kg, ip pretreated for 1 hr followed by carrageenan challenge and measured after 24 hrs (reference value: 0.83 +/-0.08 mm); format: functional; conditions: time 25 hrs
# Rattus norvegicus [10] = assay: Anti-inflammatory activity in Wistar rat assessed as inhibition of carrageenan-induced paw edema at 10 mg/kg, ip pretreated for 1 hr followed by carrageenan challenge and measured after 24 hr relative to control (reference value: 0.00 +/-0.3 %); format: functional; conditions: time 25 hrs
# Rattus norvegicus [11] = assay: Anti-inflammatory activity in Wistar rat assessed as inhibition of carrageenan-induced paw edema at 10 mg/kg, ip pretreated for 1 hr followed by carrageenan challenge and measured after 4 hr relative to indomethacin; format: functional; conditions: time 5 hrs
# Splenocyte [12] = assay: Immunomodulatory activity in Swiss albino mouse splenocytes assessed as cell viability at 10 uM by measuring stimulation index incubated for 72 hrs in presence of mitogenic stimulus phytohaemagglutinin by MTT assay (reference value: 1.00 +/- 0.24); format: functional
# Splenocyte [13] = assay: Immunomodulatory activity in Swiss albino mouse splenocytes assessed as cell viability at 10 uM by measuring inhibition of stimulation index incubated for 72 hrs in presence of mitogenic stimulus phytohaemagglutinin by MTT assay relative to indomethacin; format: functional; conditions: read-out: Activity
# Peritoneal macrophage [14] = assay: Antiinflammatory activity in […] mouse Peritoneal macrophages assessed as reduction in LPS-induced NO production by measuring reduction in stimulation index at 10 uM preincubated for 1 hr followed by LPS stimulation measured after 24 hrs by Griess method (reference value: 27.31 +/- 2.56 uM); format: functional; conditions: time 25 hrs
# Peritoneal macrophage [15] = assay: Antiinflammatory activity in […] mouse Peritoneal macrophages assessed as inhibition of LPS-induced NO production at 10 uM preincubated for 1 hr followed by LPS stimulation measured after 24 hrs by Griess method relative to control (reference value: 0.0 %); format: functional; set-up: scale not given: the % may be the effect or the level left; conditions: time 25 hrs
# Staphylococcus aureus = assay: Antibacterial activity against Staphylococcus aureus ATCC 25923 incubated for 18 hrs by agar dilution method; format: functional
# Streptococcus pyogenes = assay: Antibacterial activity against Streptococcus pyogenes ATCC 19615 incubated for 18 hrs by agar dilution method; format: functional
# Salmonella typhimurium = assay: Antibacterial activity against Salmonella typhimurium ATCC 19430 incubated for 18 hrs by agar dilution assay; format: functional, Salmonella enterica subsp. enterica serovar Typhimurium; conditions: Salmonella enterica
# Pseudomonas aeruginosa = assay: Antibacterial activity against Pseudomonas aeruginosa ATCC 27853 incubated for 18 hrs by agar dilution assay; format: functional
# Candida albicans = assay: Antifungal activity against Candida albicans incubated for 18 to 24 hrs by CLSI method; format: functional; conditions: time 18-24 hrs
# [16] = Ulcerogenic activity in fasted albino mouse assessed as incidence of gastric ulceration at 10 mg/kg, po for 3 days (reference value: 0 %); format: toxicity, organism-based; conditions: in vivo, 72 h, time 3 day
# [17] = Ulcerogenic activity in fasted albino mouse assessed as average number of ulcers in gastric mucosa at 10 mg/kg, po for 3 days (reference value: 0); format: toxicity, organism-based; conditions: in vivo, 72 h, time 3 day
# [18] = Ulcerogenic activity in fasted albino mouse assessed as average severity of ulcers in gastric mucosa at 10 mg/kg, po for 3 days (reference value: 0); format: toxicity, organism-based; conditions: in vivo, 72 h, time 3 day
# Mus musculus [19] = assay: Analgesic activity in albino mouse assessed reduction in acetic acid-induced abdominal writhing by measuring writing reflex at 10 mg/kg, ip pretreated for 1 hr followed by acetic acid challenge and measured starting 5 mins post acetic acid challenge for 10 mins (reference value: 42.4 +/- 1.02); format: functional; conditions: time 75 min, 1.25 h
# Mus musculus [20] = assay: Analgesic activity in albino mouse assessed protection against acetic acid-induced abdominal writhing at 10 mg/kg, ip pretreated for 1 hr followed by acetic acid challenge and measured starting 5 mins post acetic acid challenge for 10 mins relative to control (reference value: 0 %); format: functional; conditions: time 75 min, 1.25 h
# Mus musculus [21] = assay: Analgesic activity in albino mouse assessed protection against acetic acid-induced abdominal writhing at 10 mg/kg, ip pretreated for 1 hr followed by acetic acid challenge and measured starting 5 mins post acetic acid challenge for 10 mins relative to indomethacin; format: functional; conditions: time 75 min, 1.25 h
# Mus musculus [22] = assay: Analgesic activity in albino mouse assessed as forepaw licking/jumping latency time at 10 mg/kg, ip measured after 30 mins by hot plate test (reference value: 5.02 +/- 0.09 sec); format: functional; conditions: 0.5 h
# Mus musculus [23] = assay: Analgesic activity in albino mouse assessed as protection at 10 mg/kg, ip measured after 30 mins by hot plate test (reference value: 0 %); format: functional; conditions: 0.5 h
# Mus musculus [24] = assay: Analgesic activity in albino mouse assessed as forepaw licking/jumping latency time at 10 mg/kg, ip measured after 60 mins by hot plate test (reference value: 3.42 +/- 0.03 sec); format: functional; conditions: 1 h
# Mus musculus [25] = assay: Analgesic activity in albino mouse assessed as protection at 10 mg/kg, ip measured after 60 mins by hot plate test (reference value: 0 %); format: functional; conditions: 1 h
# Mus musculus [26] = assay: Analgesic activity in albino mouse assessed as forepaw licking/jumping latency time at 10 mg/kg, ip measured after 90 mins by hot plate test (reference value: 2.72 +/- 0.01 sec); format: functional; conditions: 1.5 h
# Mus musculus [27] = assay: Analgesic activity in albino mouse assessed as protection at 10 mg/kg, ip measured after 90 mins by hot plate test (reference value: 0 %); format: functional; conditions: 1.5 h
# Mus musculus [28] = assay: Analgesic activity in albino mouse assessed as forepaw licking/jumping latency time at 10 mg/kg, ip measured after 120 mins by hot plate test (reference value: 2.62 +/- 0.06 sec); format: functional; conditions: 2 h
# Mus musculus [29] = assay: Analgesic activity in albino mouse assessed as protection at 10 mg/kg, ip measured after 120 mins by hot plate test (reference value: 0 %); format: functional; conditions: 2 h
# Mus musculus [30] = assay: Analgesic activity in albino mouse assessed as protection at 10 mg/kg, ip measured after 120 mins by hot plate test relative to indomethacin; format: functional; conditions: 2 h
# [31] = Ulcerogenic activity in fasted albino mouse assessed as ulcer index in gastric mucosa at 10 mg/kg, po for 3 days (reference value: 0); format: toxicity, organism-based; conditions: in vivo, 72 h, time 3 day
MIC (Staphylococcus aureus),MIC (Streptococcus pyogenes),MIC (Salmonella typhimurium),MIC (Pseudomonas aeruginosa),MIC (Candida albicans),Structure (SMILES),Activity (Rattus norvegicus [1]),inhibition in vivo at 10 mg/kg (Rattus norvegicus [2]),Activity (Rattus norvegicus [3]),inhibition in vivo at 10 mg/kg (Rattus norvegicus [4]),Activity (Rattus norvegicus [5]),inhibition in vivo at 10 mg/kg (Rattus norvegicus [6]),Activity (Rattus norvegicus [7]),inhibition in vivo at 10 mg/kg (Rattus norvegicus [8]),Activity (Rattus norvegicus [9]),inhibition in vivo at 10 mg/kg (Rattus norvegicus [10]),inhibition in vivo at 10 mg/kg (Rattus norvegicus [11]),Activity_index (Splenocyte [12]),viability at 10 µM (Splenocyte [13]),Activity (Peritoneal macrophage [14]),Activity (Peritoneal macrophage [15]),also measured
0.125 µg/mL and 0.152 µM,0.25 µg/mL and 0.303 µM,0.125 µg/mL and 0.152 µM,1 µg/mL and 1.21 µM,2 µg/mL and 2.42 µM,COc1cc(/C=C/C(=O)/C=C(O)/C=C/c2ccc(OC(=O)[C@H](CCC(N)=O)NC(=O)OC(C)(C)C)c(OC)c2)ccc1OC(=O)[C@H](CCC(N)=O)NC(=O)OC(C)(C)C,2.16 mm,10%,1.73 mm,16%,1.22 mm,32%,0.83 mm,41%,0.36 mm,57%,47%,2.14,56.6%,21.22 µM,22.29%,
0.125 µg/mL and 0.157 µM,0.25 µg/mL and 0.314 µM,0.125 µg/mL and 0.157 µM,1 µg/mL and 1.26 µM,2 µg/mL and 2.52 µM,CC[C@H](C)[C@H](NC(=O)OC(C)(C)C)C(=O)Oc1ccc(/C=C/C(=O)/C=C(O)/C=C/c2ccc(OC(=O)[C@@H](NC(=O)OC(C)(C)C)[C@@H](C)CC)c(OC)c2)cc1OC,1.61 mm,33%,1.27 mm,38%,0.91 mm,49%,0.69 mm,51%,0.49 mm,41%,59%,2.07,58.3%,20.81 µM,23.82%,
0.25 µg/mL and 0.326 µM,2 µg/mL and 2.61 µM,0.25 µg/mL and 0.326 µM,2 µg/mL and 2.61 µM,1 µg/mL and 1.3 µM,COc1cc(/C=C/C(=O)/C=C(O)/C=C/c2ccc(OC(=O)[C@@H](NC(=O)OC(C)(C)C)C(C)C)c(OC)c2)ccc1OC(=O)[C@@H](NC(=O)OC(C)(C)C)C(C)C,2.09 mm,13%,1.57 mm,24%,1.34 mm,25%,0.8 mm,43%,0.58 mm,30%,49%,1.84,65.6%,19.29 µM,29.35%,
0.25 µg/mL and 0.352 µM,0.25 µg/mL and 0.352 µM,0.5 µg/mL and 0.703 µM,0.25 µg/mL and 0.352 µM,0.5 µg/mL and 0.703 µM,COc1cc(/C=C/C(=O)/C=C(O)/C=C/c2ccc(OC(=O)CCNC(=O)OC(C)(C)C)c(OC)c2)ccc1OC(=O)CCNC(=O)OC(C)(C)C,1.66 mm,31%,1.38 mm,33%,0.99 mm,45%,0.55 mm,61%,0.6 mm,28%,70%,1.7,71.1%,18.35 µM,32.81%,
,,,,,CC(C)Cc1ccc(C(C)C(=O)O)cc1 (stereo not drawn) [IBUPROFEN],1.93 mm,20%,0.82 mm,60%,0.63 mm,65%,0.29 mm,79%,0.71 mm,14%,91%,,,,,Activity [16]: 3.33%; Activity [17]: 0.33; Activity [18]: 0.67; Activity (Mus musculus [19]): 24.2; Activity (Mus musculus [20]): 42.9%; Activity (Mus musculus [21]): 69.6%; Time (Mus musculus [22]): 5.4 s; Activity (Mus musculus [23]): 7.6%; Time (Mus musculus [24]): 5.12 s; Activity (Mus musculus [25]): 49.7%; Time (Mus musculus [26]): 4.12 s; Activity (Mus musculus [27]): 51.5%; Time (Mus musculus [28]): 3.48 s; Activity (Mus musculus [29]): 32.8%; Activity (Mus musculus [30]): 78.1%
,,,,,COc1ccc2c(c1)c(CC(=O)O)c(C)n2C(=O)c1ccc(Cl)cc1 [INDOMETHACIN],1.11 mm,53%,0.85 mm,59%,0.59 mm,67%,0.18 mm,87%,0.12 mm,86%,100%,,,,,Activity [16]: 10%; Activity [17]: 2; Activity [18]: 1.67; UI [31]: 13.67; Activity (Mus musculus [19]): 16.3; Activity (Mus musculus [20]): 61.6%; Activity (Mus musculus [21]): 100%; Time (Mus musculus [22]): 6.3 s; Activity (Mus musculus [23]): 25.5%; Time (Mus musculus [24]): 5.26 s; Activity (Mus musculus [25]): 53.8%; Time (Mus musculus [26]): 3.84 s; Activity (Mus musculus [27]): 41.2%; Time (Mus musculus [28]): 3.72 s; Activity (Mus musculus [29]): 42%; Activity (Mus musculus [30]): 100%
